# Reference: PubChem BioAssay (NCI)
#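 These data come from cells grown in 96-well plates and exposed to compound for 48 hours at five concentrations. Definition used: TGI = concentration required for complete inhibition of growth.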
# Columns and labels:
# Test in all cases: NCI tumour cell line growth inhibition, 48 h
# MOLT-4 leukemia = system: MOLT-4 leukemia
# HCT-116 colon = system: HCT-116 colon
# ACHN renal = system: ACHN renal
# HCC-2998 colon = system: HCC-2998 colon
# HS 578T breast = system: HS 578T breast
# TK-10 renal = system: TK-10 renal
# RPMI-8226 leukemia = system: RPMI-8226 leukemia
# SK-OV-3 ovarian = system: SK-OV-3 ovarian
# SN12C renal = system: SN12C renal
# UO-31 renal = system: UO-31 renal
# SF-268 CNS = system: SF-268 CNS
# HOP-62 NSCLC = system: HOP-62 NSCLC
# SK-MEL-2 melanoma = system: SK-MEL-2 melanoma
# MALME-3M melanoma = system: MALME-3M melanoma
# BT-549 breast = system: BT-549 breast
# MDA-MB-231 breast = system: MDA-MB-231 breast
Compound,TGI (MOLT-4 leukemia) [µM],TGI (HCT-116 colon) [µM],TGI (ACHN renal) [µM],TGI (HCC-2998 colon) [µM],TGI (HS 578T breast) [µM],TGI (TK-10 renal) [µM],TGI (RPMI-8226 leukemia) [µM],TGI (SK-OV-3 ovarian) [µM],TGI (SN12C renal) [µM],TGI (UO-31 renal) [µM],TGI (SF-268 CNS) [µM],TGI (HOP-62 NSCLC) [µM],TGI (SK-MEL-2 melanoma) [µM],TGI (MALME-3M melanoma) [µM],TGI (BT-549 breast) [µM],TGI (MDA-MB-231 breast) [µM]
CC(C)C1CC=NN1C(=O)OC(C)(C)C (stereo not given),> 100,> 100,> 100,> 100,> 100,> 100,> 100,> 100,> 100,> 100,> 100,> 100,,,,
S=C(NNC1=NCCCN1)Nc1ccccc1,> 100,> 100,> 100,> 100,> 100,> 100,79,> 100,,> 100,> 100,> 100,> 100,> 100,> 100,
CC(O)c1c2c(cc3c1CC1(C3)Cc3cc4c(c(C(C)O)c3C1)CCC4)CCC2 (stereo not given),26.3,24.8,31.4,40.2,52.8,69.7,38.5,60.8,32,3.26,,38.8,43.3,34.5,,34.8
CCOc1ccc2ccccc2c1NC1=NCCO1,84,> 100,> 100,> 100,78.2,> 100,59.4,> 100,> 100,64.7,> 100,74.2,,> 100,,> 100
O=C1CC2CC=C[C@H]3c4cc5c(cc4C(=O)N1C23)OCO5 (stereo not given in full),> 50,> 50,> 50,> 50,,> 50,> 50,> 50,> 50,> 50,> 50,> 50,,> 50,,
CCOc1ccc(N2C(=O)C3c4[nH]c5ccccc5c4C4CCC(C(C)(C)C)CC4C3C2=O)cc1 (stereo not given),> 100,> 100,> 100,79.4,,,> 100,> 100,> 100,> 100,> 100,> 100,,> 100,,
O=C(Cc1ccccc1)NN1C(=O)C(Cl)C1c1cccc(O)c1 (stereo not given),31.6,28.9,31,36.8,,34.1,10.1,80.5,33.4,29.4,53.7,80.6,59.5,76.3,,
CSCCC(NCc1c(O)ccc2ccc(=O)oc12)C(=O)O (stereo not given),> 100,> 100,> 100,> 100,> 100,> 100,> 100,> 100,> 100,> 100,> 100,> 100,> 100,> 100,,> 100
O=C(O)C(CS)NCc1c2ccccc2[n+]([O-])c2ccccc12 (stereo not given),78.9,62.4,> 100,> 100,,> 100,92.4,> 100,> 100,66.3,91.3,> 100,> 100,> 100,,
COc1ncnc2c1cnn2Cc1cn(COCC(O)CO)nn1 (stereo not given),> 100,> 100,> 100,> 100,,> 100,> 100,> 100,> 100,> 100,35,> 100,> 100,,> 100,> 100
Cc1c(NC(=O)C(=O)N=NC(=O)c2ccncc2)c(O)c2ccccc2c1O,> 77.8,30.1,29.6,30.7,,> 100,> 82,> 88.9,24.3,40.5,60.5,40.7,11,16.4,,
CC12CC3CC/C(=N\O)C(C1)C3(N1CCOCC1)C/C2=N/O (stereo not given),> 100,> 100,> 100,> 100,,,,> 100,> 100,> 100,> 100,> 100,> 100,> 100,,> 100
N[C@H]1C2C3CC4C5CC(C42)C1(c1ccccc1)C53 (stereo not given in full),> 100,> 100,> 100,> 100,,> 100,> 100,> 100,> 100,> 100,> 100,> 100,> 100,> 100,,
